Results from patent publication US12606554B2, “Compounds and pharmaceutical compositions thereof for the treatment of diseases” (ONCO3R Therapeutics BV, priority 2019, dated 2026).

Legend:
SIK2 = target: T1, SIK2 (Homo sapiens, UniProt Q9H0K1); assay: ADP-Glo kinase assay, SIK2; type: biochemical; settings: AMARA peptide 45 μM, 5 μM ATP, 120 min
T1 construct: purchased ThermoFisher Scientific PV4792
Text: The ADP-Glo™ kinase assay is a luminescent technology assay which measures the ADP formed from a kinase reaction. In this specific study, the kinase reactions consisted of the phosphorylation of the AMARA peptide substrate (SignalChem, Cat #A11-58) by SIK1 (Carma Biosciences, Cat #02-131), SIK2 (ThermoFisher Scientific, Cat #PV4792) or SIK3 (SignalChem, Cat #S12-11G-100). In a second step the kinase reactions are terminated and all the remaining ATP is depleted. In a final step the ADP is converted into ATP and this newly synthesized ATP is measured by using a luciferase/luciferin reaction. The generated light is measured using an Envision plate reader, wherein the luminescent signal obtained positively correlates with the kinase activity.
The test compounds are prepared as a serial dilution of 10 point dose responses with ⅕ dilution steps in 100% DMSO starting from 2 mM highest concentration, diluted 1/20 in water and […] is transferred to the assay plates (PerkinElmer Inc., Cat #6007290).
1% DMSO and 10 μM staurosporine final concentrations are used as negative and positive controls.
2 μL enzyme-substrate mixture is added to the assay plates.
The reaction is started by adding 2 μL diluted ATP on the assay plates. Plates are centrifuged for a few seconds at 1000 rpm and gently shaken for 2 min followed by an incubation at RT for 120 min.
The reactions are stopped and the unconsumed ATP is depleted by adding 5 μL ADP-Glo Reagent (Promega, Cat #V9121B) to the reaction. The plates are centrifuged for a few seconds at 1000 rpm and incubated at RT for […] (ATP depletion).
The ADP is converted to ATP and luciferase and luciferin is introduced to detect ATP by adding 10 μL Kinase Detection Reagent (Promega, Cat #V913B+V914r) to the reaction. The plates are centrifuged for a few seconds at 1000 rpm and incubated at RT for 30 min (ADP detection).
Luminescence is measured on an Envision plate reader (PerkinElmer Inc.).
Raw data are generated following the read-out performed on the TopCount, plotted to generate dose response curves to calculate percentage inhibition (PIN) and average IC50 for each SIK homologue which are reported in the table below.

[1] = tested on: LPS-induced TNFα in monocytes; assay: Monocytes assay: LPS-triggered TNFα (ELISA); type: cell-based; settings: Homo sapiens, Monocyte, LPS 200 ng/mL, supernatant after 4 h
Protocol: SIK inhibition inhibits TNFα and increases IL-10 release in LPS triggered monocyte-derived macrophages (MdM) and dendritic cells (MdDCs) (Clark et al. 2012; Sundberg et al. 2014; Ozanne et al. 2015). This assay evaluates illustrative compounds of the invention for their inhibition of LPS-induced TNFα and LPS triggered IL-10 secretion in monocytes.
PBMCs are isolated from human blood samples (buffycoats). The buffy coat is aseptically transferred into a 50 mL Falcon tube, and diluted ½ in PBS. Falcon tubes are filled with 20 mL Lymphoprep™, on top of which 25 mL of the buffy coat is carefully added, tubes are centrifuged for 35 min at 400 g in temperature controlled centrifuge, without brake, at 25° C. PBMCs are aspirated from the white interface layer between sample and Lymphoprep™. PBMCs are washed five times in PBS. Cells are resuspended in RPMI 1640 complete medium supplemented with 10% FBS, 1% P/S, and cell density is determined using a hematologic analyzer (Sysmex XS-500i).
PBMCs are centrifuged at 300×g for 10 min and resuspended at a density of 1.0*10^7 cells/80 μL Miltenyi buffer (PBS, pH 7.4, 1% FBS, 2 mM EDTA).
Starting from this point of the protocol all steps are performed on ice. 20 μL of CD14+ micro-beads are added per 1.0*10^7 cells, the tube is mixed and incubated for 15 min in the fridge at 4° C. Cell suspension volume is adjusted to total volume of 100 mL using Miltenyi buffer, mixed gently and subsequently centrifuged for 10 min at 300×g. Supernatant is discarded and cell pellet is resuspended in 12 mL of Miltenyi buffer.
Four LS columns are placed in the MACS Separator (magnet) from Miltenyi Biotec, and are prewet by rinsing with 3 mL of MACS buffer per column. Three mL of cell suspension is added onto the column (max 1*10^8 of labelled cells/column), and columns are subsequently washed 3 times with 3 mL of Miltenyi buffer.
The columns are removed from the magnets, and 5 mL of Miltenyi buffer are added to the column to flush out the CD14+ fraction by pushing the plunger into the column. The flushed fractions are collected in a fresh 50 mL Falcon and volume is adjusted to 30 mL using Miltenyi buffer, cells are centrifuged for 10 min at 300×g. The obtained cell pellet is resuspended in 10 mL RPMI w/o FBS, and cell density is determined using a hematologic analyser (Sysmex XS-500i). 100 000 cells are seeded in 80 μL per well of a 96-well plate in RPMI 1640 medium supplemented with 10% FBS, 1% P/S.
A compound dilution plate is made in 100% DMSO by 3-fold dilution of 10 mM stock solution. An intermediate dilution plate (10× final concentration) is made by diluting the compound dilution plate 50-fold in RPMI medium.
10 μL of the 10× final concentration compound is added to the cells and incubated for 1 h at 37° C. before addition of trigger. […]

T1 sequence (Q9H0K1 whole entry): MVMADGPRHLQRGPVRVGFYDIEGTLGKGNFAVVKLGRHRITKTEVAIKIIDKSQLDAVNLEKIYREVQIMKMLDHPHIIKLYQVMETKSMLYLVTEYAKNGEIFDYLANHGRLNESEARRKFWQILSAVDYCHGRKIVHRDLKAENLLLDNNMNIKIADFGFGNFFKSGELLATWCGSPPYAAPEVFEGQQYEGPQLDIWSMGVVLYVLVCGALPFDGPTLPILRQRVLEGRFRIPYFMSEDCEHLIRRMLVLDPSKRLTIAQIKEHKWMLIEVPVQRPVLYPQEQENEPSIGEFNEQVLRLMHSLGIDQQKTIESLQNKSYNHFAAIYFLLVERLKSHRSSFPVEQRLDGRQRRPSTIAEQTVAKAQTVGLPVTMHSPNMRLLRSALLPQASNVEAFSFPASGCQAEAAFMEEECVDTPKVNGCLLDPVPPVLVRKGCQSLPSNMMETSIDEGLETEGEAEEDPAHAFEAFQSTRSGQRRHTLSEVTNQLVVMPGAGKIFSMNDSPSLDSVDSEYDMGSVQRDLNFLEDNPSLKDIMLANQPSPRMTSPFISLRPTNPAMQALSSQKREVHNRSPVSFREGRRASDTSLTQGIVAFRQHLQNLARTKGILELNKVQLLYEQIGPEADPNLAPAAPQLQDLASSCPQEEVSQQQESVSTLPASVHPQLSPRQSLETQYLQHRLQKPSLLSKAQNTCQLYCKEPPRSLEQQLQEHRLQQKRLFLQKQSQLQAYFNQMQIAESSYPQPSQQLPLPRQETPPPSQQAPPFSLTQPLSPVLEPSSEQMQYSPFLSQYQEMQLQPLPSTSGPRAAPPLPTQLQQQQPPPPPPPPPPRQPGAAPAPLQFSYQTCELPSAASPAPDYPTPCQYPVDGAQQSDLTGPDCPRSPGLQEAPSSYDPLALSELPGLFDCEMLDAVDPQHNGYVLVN

| Structure (SMILES) | IC50 (SIK2) [nM] | EC50 [1] [nM] |
| --- | --- | --- |
| COc1cc(-c2cnn3cc(OCCN4CCOCC4)ccc23)cc2c1C(=O)N(CC(F)(F)F)CC2 [Cpd 1, 8-methoxy-6-[6-(2-morpholinoethoxy)pyrazolo[1,5-a]pyridin-3-yl]-2-(2,2,2-trifluoroethyl)-3,4-dihydroisoquinolin-1-one] | 0.01 to 10 | 100 to 1000 |
| COc1cc(-c2cnn3cc(OC(C)(C)CO)ccc23)cc(OC(F)F)c1C(=O)N[C@@H]1C[C@@H]1F [Cpd 2, 2-(difluoromethoxy)-N-[(1R,2S)-2-fluorocyclopropyl]-4-[6-(2-hydroxy-1,1-dimethyl-ethoxy)pyrazolo[1,5-a]pyridin-3-yl]-6-methoxy-benzamide] | 100 to 500 | 100 to 1000 |
| COc1cc(-c2cnn3cc(OC(C)(C)CN4CCOCC4)ccc23)cc(OC(F)F)c1C(=O)N[C@@H]1C[C@@H]1F [Cpd 3, 2-(difluoromethoxy)-4-[6-(1,1-dimethyl-2-morpholino-ethoxy)pyrazolo[1,5-a]pyridin-3-yl]-N-[(1R,2S)-2-fluorocyclopropyl]-6-methoxy-benzamide] | 100 to 500 | 100 to 1000 |
